Measurements published in patent US10377778B2, “Lead and thorium compounds” (Sciencons AS, priority 2017, dated 2019).

Tests used:
[1] = system: PSMA-positive xenografts; assay: Biodistribution of single targeting solution (purified ^212Pb-ligand) in mice with PSMA-positive xenografts; format: in vivo
Description: Using a ^212Pb/^224Ra solution for reaction with p-SCN-Bn-TCMC-PSMA ligand 1 as described, purified ^212Pb-p-SCN-Bn-TCMC-PSMA ligand 1 was purified using a Sephadex G-10 gel filtration column and about 30 kBq and 300 ng of the purified radioligand product was injected per animal. […] The tumor-to-tissue ratios (Table 4) indicates suitability for radioligand targeting with ^212Pb.

[2] = system: C4-2 PSMA positive human prostate cells xenografts; assay: Comparative therapy experiment in nude mice with C4-2 xenografts; format: in vivo; details: 52 MBq ^177Lu-PSMA-617 or 320 kBq ^212Pb-ligand 1
Description: Male nude mice were inoculated in the flanks with C4-2 PSMA positive human prostate cells and 2 weeks later when tumors were 5-7 mm in diameters. Groups of 8 animals each received saline, 52 MBq of ^177Lu-PSMA-617 or 320 kBq of ^212Pb-p-SCN-Bn-TCMC-PSMA ligand 1. Animals were sacrificed when tumor size reached 20 mm due to animal welfare requirements. […] For ^212Pb the effective half-life was assumed to be 10.6 h, 10% of injected dose per gram decays in tumor and 100% of radiation in a tumor is absorbed in the tumor, 100% retention of ^212Pb and daughters in the tumors and 8 MeV radiation energy per decay. The tumor dosimetry for the injected activities gave on average 35.9 Gy to tumors for ^177Lu-PSMA-617 and 2.06 Gy to tumors for ^212Pb-p-SCN-Bn-TCMC-PSMA ligand 1 groups respectively.

[3] = Stability testing of ^212Pb-labeled ligands in vitro (TLC radiochemical purity in PBS and FBS); format: physicochemical; details: 37° C.
Description: Thin layer chromatography (TLC) was performed using chromatography strips (model #150-772, Biodex Medical Systems Inc, Shirley, N.Y., USA). A formulation buffer (FB) consisting of 7.5% human serum albumin and 5 mM EDTA in DPBS and adjusted to approximately pH 7 with NaOH was mixed with the antibody conjugates in ratio 2:1 for at least 5 minutes before application to the strips to determine free radionuclide. A small beaker with about 0.5 ml of 0.9% NaCl was used to place strips with a sample spot in. To the strip was typically added 1-4 μl of sample at approximately 10% above the bottom of the strip. After the solvent front had moved to about 20% from the top of the strip, the strip was cut in half and each half was placed in a 5 ml test tube for counting. In this system radiolabeled ligand stays at the bottom half while radionuclide complexed with EDTA migrates to the upper half. It was verified that free cations of both ^212Pb and ^177Lu would complex with EDTA and moved to the top.
TLC analyses were performed at 1 h, 4 h, 24 h and 48 h of incubation. […]

NC(=O)CN1CCN(CC(N)=O)CCN(CC(N)=O)C(Cc2ccc(NC(=S)NCC3CCC(C(=O)NC(Cc4ccc5ccccc5c4)C(=O)NCCCCC(NC(=O)NC(CCC(=O)O)C(=O)O)C(=O)O)CC3)cc2)CN(CC(N)=O)CC1.[212Pb+2] (stereo not shown) [^212Pb-p-SCN-Bn-TCMC-PSMA ligand 1]
Tumor/Femur ratio ([1]; 1 h): 30.4
Tumor/blood ratio ([1]; 1 h): 14.9
Tumor/kidneys ratio ([1]; 1 h): 0.41
Tumor/muscle ratio ([1]; 1 h): 42.6
Tumor/Femur ratio ([1]; 2 h): 39.7
Tumor/blood ratio ([1]; 2 h): 29.4
Tumor/kidneys ratio ([1]; 2 h): 0.62
Tumor/muscle ratio ([1]; 2 h): 72.1
Tumor/Femur ratio ([1]; 4 h): 24.8
Tumor/blood ratio ([1]; 4 h): 30.7
Tumor/kidneys ratio ([1]; 4 h): 1.54
Tumor/muscle ratio ([1]; 4 h): 61.5
Tumor/Femur ratio ([1]; 8 h): 19.8
Tumor/blood ratio ([1]; 8 h): 112.7
Tumor/kidneys ratio ([1]; 8 h): 3.60
Tumor/muscle ratio ([1]; 8 h): 366.2
Biodistribution, Bladder ([1]; 1 h post injection): 36.86 % ID/g
Biodistribution, Bladder ([1]; 2 h post injection): 6.85 % ID/g
Biodistribution, Bladder ([1]; 4 h post injection): 3.53 % ID/g
Biodistribution, Bladder ([1]; 8 h post injection): 0.26 % ID/g
Biodistribution, Blood ([1]; 1 h post injection): 1.77 % ID/g
Biodistribution, Blood ([1]; 2 h post injection): 0.54 % ID/g
Biodistribution, Blood ([1]; 4 h post injection): 0.46 % ID/g
Biodistribution, Blood ([1]; 8 h post injection): 0.13 % ID/g
Biodistribution, Brain ([1]; 1 h post injection): 0.61 % ID/g
Biodistribution, Brain ([1]; 2 h post injection): 0.04 % ID/g
Biodistribution, Brain ([1]; 4 h post injection): 0.07 % ID/g
Biodistribution, Brain ([1]; 8 h post injection): 0.02 % ID/g
Biodistribution, Femur ([1]; 1 h post injection): 0.87 % ID/g
Biodistribution, Femur ([1]; 2 h post injection): 0.40 % ID/g
Biodistribution, Femur ([1]; 4 h post injection): 0.57 % ID/g
Biodistribution, Femur ([1]; 8 h post injection): 0.74 % ID/g
Biodistribution, Heart ([1]; 1 h post injection): 0.78 % ID/g
Biodistribution, Heart ([1]; 2 h post injection): 0.20 % ID/g
Biodistribution, Heart ([1]; 4 h post injection): 0.52 % ID/g
Biodistribution, Heart ([1]; 8 h post injection): 0.09 % ID/g
Biodistribution, Kidneys ([1]; 1 h post injection): 63.96 % ID/g
Biodistribution, Kidneys ([1]; 2 h post injection): 25.41 % ID/g
Biodistribution, Kidneys ([1]; 4 h post injection): 9.19 % ID/g
Biodistribution, Kidneys ([1]; 8 h post injection): 4.07 % ID/g
Biodistribution, Large intestine ([1]; 1 h post injection): 0.25 % ID/g
Biodistribution, Large intestine ([1]; 2 h post injection): 0.39 % ID/g
Biodistribution, Large intestine ([1]; 4 h post injection): 0.18 % ID/g
Biodistribution, Large intestine ([1]; 8 h post injection): 0.17 % ID/g
Biodistribution, Liver ([1]; 1 h post injection): 2.39 % ID/g
Biodistribution, Liver ([1]; 2 h post injection): 1.33 % ID/g
Biodistribution, Liver ([1]; 4 h post injection): 1.55 % ID/g
Biodistribution, Liver ([1]; 8 h post injection): 1.25 % ID/g
Biodistribution, Lungs ([1]; 1 h post injection): 1.19 % ID/g
Biodistribution, Lungs ([1]; 2 h post injection): 0.40 % ID/g
Biodistribution, Lungs ([1]; 4 h post injection): 0.75 % ID/g
Biodistribution, Lungs ([1]; 8 h post injection): 0.17 % ID/g
Biodistribution, Muscle ([1]; 1 h post injection): 0.62 % ID/g
Biodistribution, Muscle ([1]; 2 h post injection): 0.22 % ID/g
Biodistribution, Muscle ([1]; 4 h post injection): 0.23 % ID/g
Biodistribution, Muscle ([1]; 8 h post injection): 0.04 % ID/g
Biodistribution, Prostate ([1]; 1 h post injection): 13.95 % ID/g
Biodistribution, Prostate ([1]; 2 h post injection): 3.80 % ID/g
Biodistribution, Prostate ([1]; 4 h post injection): 1.48 % ID/g
Biodistribution, Prostate ([1]; 8 h post injection): −0.10 % ID/g
Biodistribution, Salivary gland ([1]; 1 h post injection): 0.72 % ID/g
Biodistribution, Salivary gland ([1]; 2 h post injection): 0.32 % ID/g
Biodistribution, Salivary gland ([1]; 4 h post injection): 0.34 % ID/g
Biodistribution, Salivary gland ([1]; 8 h post injection): 0.15 % ID/g
Biodistribution, Skin ([1]; 1 h post injection): 1.70 % ID/g
Biodistribution, Skin ([1]; 2 h post injection): 0.47 % ID/g
Biodistribution, Skin ([1]; 4 h post injection): 0.42 % ID/g
Biodistribution, Skin ([1]; 8 h post injection): 0.23 % ID/g
Biodistribution, Skull ([1]; 1 h post injection): 0.77 % ID/g
Biodistribution, Skull ([1]; 2 h post injection): 0.38 % ID/g
Biodistribution, Skull ([1]; 4 h post injection): 0.37 % ID/g
Biodistribution, Skull ([1]; 8 h post injection): 0.63 % ID/g
Biodistribution, Small intestine ([1]; 1 h post injection): 0.34 % ID/g
Biodistribution, Small intestine ([1]; 2 h post injection): 0.23 % ID/g
Biodistribution, Small intestine ([1]; 4 h post injection): 0.30 % ID/g
Biodistribution, Small intestine ([1]; 8 h post injection): 0.08 % ID/g
Biodistribution, Spleen ([1]; 1 h post injection): 1.24 % ID/g
Biodistribution, Spleen ([1]; 2 h post injection): 0.44 % ID/g
Biodistribution, Spleen ([1]; 4 h post injection): 0.54 % ID/g
Biodistribution, Spleen ([1]; 8 h post injection): 0.36 % ID/g
Biodistribution, Stomach ([1]; 1 h post injection): 0.16 % ID/g
Biodistribution, Stomach ([1]; 2 h post injection): 0.22 % ID/g
Biodistribution, Stomach ([1]; 4 h post injection): 0.10 % ID/g
Biodistribution, Stomach ([1]; 8 h post injection): 0.09 % ID/g
Biodistribution, Testes ([1]; 1 h post injection): 4.41 % ID/g
Biodistribution, Testes ([1]; 2 h post injection): 0.56 % ID/g
Biodistribution, Testes ([1]; 4 h post injection): 0.38 % ID/g
Biodistribution, Testes ([1]; 8 h post injection): 0.12 % ID/g
Biodistribution, Tumor ([1]; 1 h post injection): 26.44 % ID/g
Biodistribution, Tumor ([1]; 2 h post injection): 15.87 % ID/g
Biodistribution, Tumor ([1]; 4 h post injection): 14.14 % ID/g
Biodistribution, Tumor ([1]; 8 h post injection): 14.65 % ID/g
Biodistribution, Urine ([1]; 1 h post injection): 253.36 % ID/g
Biodistribution, Urine ([1]; 2 h post injection): 250.85 % ID/g
Biodistribution, Urine ([1]; 4 h post injection): 32.12 % ID/g
Biodistribution, Urine ([1]; 8 h post injection): 6.76 % ID/g
Survival at day 30 after treatment ([2]; groups of 8, saline group 0%): 75%
Median survival ([2]; saline group 15 days): > 30 days
Radiochemical purity ([3]; FBS, 1 h since start of incubation, in ^224Ra/^212Pb solution): 93.50%
Radiochemical purity ([3]; FBS, 4 h): 94.18%
Radiochemical purity ([3]; FBS, 24 h): 93.54%
Radiochemical purity ([3]; FBS, 48 h): 90.81%
Radiochemical purity ([3]; PBS, 1 h since start of incubation, in ^224Ra/^212Pb solution): 93.26%
Radiochemical purity ([3]; PBS, 4 h): 95.04%
Radiochemical purity ([3]; PBS, 24 h): 95.00%
Radiochemical purity ([3]; PBS, 48 h): 95.11%
